Data: the NIST ThermoML archive (doi:10.1016/j.fluid.2015.07.030)

Assay: refractive index (other wavelength) (dimensionless); xn = mol fraction of the nth substance listed
Conditions: 293.15 K, 95.99 kPa, Liquid, Standard Abbe refractometry

OCCOCCOCCO [triethylene glycol] + O
refractive index
Conditions	Wavelength=589.3 nm	Wavelength=632.8 nm	Wavelength=644 nm	Wavelength=706.5 nm
x2 = 0	–	1.45455	1.4542	1.45248
x2 = 0.1056	–	1.45311	1.45275	1.45102
x2 = 0.2069	–	1.45131	1.45095	1.44922
x2 = 0.3104	–	1.44796	1.4476	1.44588
x2 = 0.4844	–	1.44426	1.44391	1.44221
x2 = 0.5016	–	1.44326	1.44291	1.44121
x2 = 0.5952	–	1.43663	1.43669	1.4346
x2 = 0.6016	–	1.4367	1.43635	1.43464
x2 = 0.6788	–	1.4301	1.42981	1.42813
x2 = 0.7835	–	1.42078	1.42043	–
x2 = 0.8184	–	1.41555	1.4152	–
x2 = 0.8473	–	1.40964	1.4093	–
x2 = 0.8719	–	1.40238	1.40204	–
x2 = 0.8926	–	1.3943	1.39396	–
x2 = 0.9106	1.39038	1.38899	1.38865	–
x2 = 0.9254	1.37998	1.3786	1.37827	–
x2 = 0.9303	1.38114	1.37976	1.37942	–
x2 = 0.9391	1.37731	1.37592	1.37559	–
x2 = 0.951	1.37039	1.36903	1.36871	–
x2 = 0.9599	1.36431	1.36296	1.36264	–
x2 = 0.9708	1.35652	1.3552	1.35488	–
x2 = 0.979	1.35142	1.35011	1.3498	–
x2 = 0.9867	1.34526	1.34398	1.34367	–
x2 = 0.9936	1.33902	1.33774	1.33744	–
